Measured values reported in ChEMBL document CHEMBL3044888, “Fungicidal activity of indole derivatives against some plant pathogenic fungi” (J Pestic Sci, 2010).
Converted amounts (≈) assume the structure as drawn.

Key:
[1] = tested on: Macrophomina phaseolina; experiment: In vivo effect on peroxidase activity in Macrophomina phaseoli assessed as reduced sugar content per gram of dry hyphal at 0.25 times of IC50 concentration (reference value: 7.3 +/- 0.5 mg/g of dry weight); format: functional
[2] = tested on: Globisporangium debaryanum; experiment: Fungicidal activity against Pythium debaryanum assessed as inhibition of hyphal growth by radial growth test; format: functional, organism-based
[3] = tested on: Rhizoctonia solani; experiment: In vivo effect on peroxidase activity in Rhizoctonia solani assessed as non-reducing sugar content per gram of dry hyphal at 0.5 times of IC50 concentration (reference value: 2.8 +/- 0.2 mg/g of dry weight); format: functional
[4] = tested on: Fusarium culmorum; experiment: In vivo effect on peroxidase activity in Fusarium culmorum assessed as DNA content at 1 times of IC50 concentration (reference value: 49.5 +/- 1.6 mg/l); format: functional
[5] = tested on: Globisporangium debaryanum; experiment: In vivo effect on peroxidase activity in Pythium debaryanum assessed as RNA content at 2 times of IC50 concentration (reference value: 32.2 +/- 0.7 mg/l); format: functional
[6] = tested on: Globisporangium debaryanum; experiment: Inhibition of peroxidase activity in Pythium debaryanum at 0.1 times of IC50 concentration
[7] = tested on: Rhizoctonia solani; experiment: In vivo effect on peroxidase activity in Rhizoctonia solani assessed as RNA content at 0.5 times of IC50 concentration (reference value: 25 +/- 0.7 mg/l); format: functional
[8] = tested on: Fusarium culmorum; experiment: In vivo effect on peroxidase activity in Fusarium culmorum assessed as RNA content at 0.5 times of IC50 concentration (reference value: 51.5 +/- 1.5 mg/l); format: functional
[9] = tested on: Rhizoctonia solani; experiment: In vivo effect on peroxidase activity in Rhizoctonia solani assessed as RNA content at 0.25 times of IC50 concentration (reference value: 25 +/- 0.7 mg/l); format: functional
[10] = tested on: Macrophomina phaseolina; experiment: In vivo effect on peroxidase activity in Macrophomina phaseoli assessed as reduced sugar content per gram of dry hyphal at 1 times of IC50 concentration (reference value: 7.3 +/- 0.5 mg/g of dry weight); format: functional
[11] = tested on: Macrophomina phaseolina; experiment: In vivo effect on peroxidase activity in Macrophomina phaseoli assessed as non-reducing sugar content per gram of dry hyphal at 1 times of IC50 concentration (reference value: 12 +/- 0.8 mg/g of dry weight); format: functional
[12] = tested on: Rhizoctonia solani; experiment: In vivo effect on peroxidase activity in Rhizoctonia solani assessed as total soluble sugar content per gram of dry hyphal at 1 times of IC50 concentration (reference value: 20.1 +/- 0.8 mg/g of dry weight); format: functional
[13] = tested on: Fusarium culmorum; experiment: In vivo effect on peroxidase activity in Fusarium culmorum assessed as RNA content at 0.1 times of IC50 concentration (reference value: 51.5 +/- 1.5 mg/l); format: functional
[14] = tested on: Rhizoctonia solani; experiment: Fungicidal activity against Rhizoctonia solani assessed as inhibition of hyphal growth by radial growth test; format: functional, organism-based
[15] = tested on: Rhizoctonia solani; experiment: In vivo effect on peroxidase activity in Rhizoctonia solani assessed as DNA content at 0.5 times of IC50 concentration (reference value: 24 +/- 0.7 mg/l); format: functional
[16] = tested on: Rhizoctonia solani; experiment: In vivo effect on peroxidase activity in Rhizoctonia solani assessed as DNA content at 2 times of IC50 concentration (reference value: 24 +/- 0.7 mg/l); format: functional
[17] = tested on: Macrophomina phaseolina; experiment: In vivo effect on peroxidase activity in Macrophomina phaseoli assessed as non-reducing sugar content per gram of dry hyphal at 0.1 times of IC50 concentration (reference value: 12 +/- 0.8 mg/g of dry weight); format: functional
[18] = tested on: Rhizoctonia solani; experiment: In vivo effect on peroxidase activity in Rhizoctonia solani assessed as reduced sugar content per gram of dry hyphal at 1 times of IC50 concentration (reference value: 17.3 +/- 1 mg/g of dry weight); format: functional
[19] = tested on: Fusarium culmorum; experiment: In vivo effect on peroxidase activity in Fusarium culmorum assessed as RNA content at 1 times of IC50 concentration (reference value: 51.5 +/- 1.5 mg/l); format: functional
[20] = tested on: Macrophomina phaseolina; experiment: In vivo effect on peroxidase activity in Macrophomina phaseoli assessed as total soluble sugar content per gram of dry hyphal at 0.25 times of IC50 concentration (reference value: 19.3 +/- 0.7 mg/g of dry weight); format: functional
[21] = tested on: Macrophomina phaseolina; experiment: In vivo effect on peroxidase activity in Macrophomina phaseoli assessed as RNA content at 1 times of IC50 concentration (reference value: 16.1 +/- 0.4 mg/l); format: functional
[22] = tested on: Rhizoctonia solani; experiment: In vivo effect on peroxidase activity in Rhizoctonia solani assessed as DNA content at 1 times of IC50 concentration (reference value: 24 +/- 0.7 mg/l); format: functional
[23] = tested on: Macrophomina phaseolina; experiment: In vivo effect on peroxidase activity in Macrophomina phaseoli assessed as non-reducing sugar content per gram of dry hyphal at 0.25 times of IC50 concentration (reference value: 12 +/- 0.8 mg/g of dry weight); format: functional
[24] = tested on: Globisporangium debaryanum; experiment: Inhibition of peroxidase activity in Pythium debaryanum at 0.5 times of IC50 concentration
[25] = tested on: Fusarium culmorum; experiment: In vivo effect on peroxidase activity in Fusarium culmorum assessed as RNA content at 2 times of IC50 concentration (reference value: 51.5 +/- 1.5 mg/l); format: functional
[26] = tested on: Fusarium culmorum; experiment: Fungicidal activity against Fusarium culmorum assessed as inhibition of hyphal growth by radial growth test; format: functional, organism-based
[27] = tested on: Fusarium culmorum; experiment: In vivo effect on peroxidase activity in Fusarium culmorum assessed as RNA content at 0.25 times of IC50 concentration (reference value: 51.5 +/- 1.5 mg/l); format: functional
[28] = tested on: Rhizoctonia solani; experiment: In vivo effect on peroxidase activity in Rhizoctonia solani assessed as RNA content at 2 times of IC50 concentration (reference value: 25 +/- 0.7 mg/l); format: functional
[29] = tested on: Rhizoctonia solani; experiment: In vivo effect on peroxidase activity in Rhizoctonia solani assessed as DNA content at 0.1 times of IC50 concentration (reference value: 24 +/- 0.7 mg/l); format: functional
[30] = tested on: Rhizoctonia solani; experiment: In vivo effect on peroxidase activity in Rhizoctonia solani assessed as DNA content at 0.25 times of IC50 concentration (reference value: 24 +/- 0.7 mg/l); format: functional
[31] = tested on: Globisporangium debaryanum; experiment: In vivo effect on peroxidase activity in Pythium debaryanum assessed as RNA content at 0.5 times of IC50 concentration (reference value: 32.2 +/- 0.7 mg/l); format: functional
[32] = tested on: Fusarium culmorum; experiment: Inhibition of peroxidase activity in Fusarium culmorum at 0.5 times of IC50 concentration
[33] = tested on: Rhizoctonia solani; experiment: In vivo effect on peroxidase activity in Rhizoctonia solani assessed as non-reducing sugar content per gram of dry hyphal at 0.25 times of IC50 concentration (reference value: 2.8 +/- 0.2 mg/g of dry weight); format: functional
[34] = tested on: Rhizoctonia solani; experiment: In vivo effect on peroxidase activity in Rhizoctonia solani assessed as RNA content at 1 times of IC50 concentration (reference value: 25 +/- 0.7 mg/l); format: functional
[35] = tested on: Macrophomina phaseolina; experiment: In vivo effect on peroxidase activity in Macrophomina phaseoli assessed as RNA content at 0.5 times of IC50 concentration (reference value: 16.1 +/- 0.4 mg/l); format: functional
[36] = tested on: Macrophomina phaseolina; experiment: In vivo effect on peroxidase activity in Macrophomina phaseoli assessed as non-reducing sugar content per gram of dry hyphal at 0.5 times of IC50 concentration (reference value: 12 +/- 0.8 mg/g of dry weight); format: functional
[37] = Inhibition of polyphenoloxidase activity in Macrophomina phaseoli; set-up: species or system Macrophomina phaseolina

SMILES	Activity [1] [mg]	IC50 [2] [µg/mL]	Activity [3] [mg]	Activity [4] [mg/L]	Activity [5] [mg/L]	inhibition [6] [%]	Activity [7] [mg/L]	Activity [8] [mg/L]	Activity [9] [mg/L]	Activity [10] [mg]	Activity [11] [mg]	Activity [12] [mg]	Activity [13] [mg/L]	IC50 [14] [µg/mL]	Activity [15] [mg/L]	Activity [16] [mg/L]	Activity [17] [mg]	Activity [18] [mg]	Activity [19] [mg/L]	Activity [20] [mg]	other results
CC(=O)n1c(-c2ccccc2)cc2ccccc21	14.8	15 (≈ 63.8 µM)	0.4	27.2	22.5	0	27.9	29.2	26.2	25.8	8.9	2.8	45.4	37.5 (≈ 159 µM)	26.6	34.7	1.7	2.6	28.3	22.2	Activity [21]: 8.5 mg/L; Activity [22]: 31.4 mg/L; Activity [23]: 7.4 mg; inhibition [24]: 1.3%; Activity [25]: 20.3 mg/L; IC50 [26]: 86.7 µg/mL (≈ 368 µM); Activity [27]: 31.1 mg/L; Activity [28]: 36.1 mg/L; Activity [29]: 23.2 mg/L; Activity [30]: 25.2 mg/L; Activity [31]: 11.8 mg/L; inhibition [32]: -7.9%; Activity [33]: 1.2 mg; Activity [34]: 32.6 mg/L; Activity [35]: 8.6 mg/L; Activity [36]: 10.2 mg; IC50 [37]: 80.2 µg/mL (≈ 341 µM)
c1ccc(-c2cc3ccccc3[nH]2)cc1 [2-PHENYL-1H-INDOLE]	4.6	17.7 (≈ 91.6 µM)	3.1	25.3	24.2	19.3	30.8	18.7	30	5.8	1.3	9.8	29.7	34.6 (≈ 179 µM)	29.6	27	2.4	7.7	26.3	9.7	Activity [21]: 6.3 mg/L; Activity [22]: 30.9 mg/L; Activity [23]: 5.1 mg; inhibition [24]: 0%; Activity [25]: 24.7 mg/L; IC50 [26]: 67.4 µg/mL (≈ 349 µM); Activity [27]: 24.3 mg/L; Activity [28]: 28 mg/L; Activity [29]: 28.3 mg/L; Activity [30]: 28.9 mg/L; Activity [31]: 11.4 mg/L; inhibition [32]: 53.8%; Activity [33]: 11.4 mg; Activity [34]: 32.2 mg/L; Activity [35]: 8.3 mg/L; Activity [36]: 1.4 mg; IC50 [37]: 117.1 µg/mL (≈ 606 µM)
